Reference: PubChem BioAssay AID2060889 (Molecular Pharmacology Branch, DTP, NCI, 2025)

Tested on: LG0567-F671-PDC complex spheroids viability
Test: Anticancer human tumor LG0567-F671-PDC patient-derived lung adenocarcinoma cell line growth inhibition [RAS]
Conditions: for IC50: curve of first compound; for viability, T/C: stronger effect = lower value
How it was run: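 Tumour cells grown as complex spheroids with HUVEC endothelial cells and mesenchymal stem cells, treated with RAS pathway inhibitor combinations. Each agent spans half-log steps from near clinical Cmax, or 10 microM where Cmax is unknown.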

[1] = second compound 0.0316 µM, first compound 0.0316 µM
[2] = second compound 0.0316 µM, first compound 0.1 µM
[3] = second compound 0.0316 µM, first compound 0.316 µM
[4] = second compound 0.0316 µM, first compound 1 µM
[5] = second compound 0.1 µM, first compound 0.0316 µM
[6] = second compound 0.1 µM, first compound 0.1 µM
[7] = second compound 0.1 µM, first compound 0.316 µM
[8] = second compound 0.1 µM, first compound 1 µM
[9] = second compound 0.316 µM, first compound 0.0316 µM
[10] = second compound 0.316 µM, first compound 0.1 µM
[11] = second compound 0.316 µM, first compound 0.316 µM
[12] = second compound 0.316 µM, first compound 1 µM
[13] = second compound 1 µM, first compound 0.0316 µM
[14] = second compound 1 µM, first compound 0.1 µM
[15] = second compound 1 µM, first compound 0.316 µM
[16] = second compound 1 µM, first compound 1 µM
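Further: spheroids exposed to compound for seven days before readout.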
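Wherever IC50 is given: luminescence signal used as a proxy for viable cells.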

With CC(C)n1nc(-c2ccc3oc(N)nc3c2)c2c(N)ncnc21 + CCn1c(-c2cc(N3CCN(C)CC3)cnc2C(C)OC)c2c3cc(ccc31)-c1csc(n1)CC(NC(=O)C1CC1C)C(=O)N1CCCC(N1)C(=O)OCC(C)(C)C2 the IC50 (second compound 0.000949 µM) was < 0.316 nM, the IC50 (second compound 0.003 µM) was < 0.316 nM and the IC50 (second compound 0.00949 µM) was < 0.316 nM. The IC50 (second compound 0.03 µM) was < 0.316 nM, the IC50 (second compound 0.0949 µM) was < 0.316 nM and the IC50 (second compound 0.3 µM) was < 0.316 nM. It also gave a viability, T/C (second compound 0.000949 µM, first compound 0.000316 µM) of 24.8%, a viability, T/C (second compound 0.000949 µM, first compound 0.001 µM) of 23.1% and a viability, T/C (second compound 0.000949 µM, first compound 0.00316 µM) of 18.8%. For the same molecule, the viability, T/C (second compound 0.000949 µM, first compound 0.01 µM) was 15.1%, the viability, T/C (second compound 0.000949 µM, first compound 0.0316 µM) was 11.8% and the viability, T/C (second compound 0.000949 µM, first compound 0.1 µM) was 7.87%. It also gave a viability, T/C (second compound 0.003 µM, first compound 0.000316 µM) of 12.8%, a viability, T/C (second compound 0.003 µM, first compound 0.001 µM) of 11.2% and a viability, T/C (second compound 0.003 µM, first compound 0.00316 µM) of 8.44%. The viability, T/C (second compound 0.003 µM, first compound 0.01 µM) was 6.54%, the viability, T/C (second compound 0.003 µM, first compound 0.0316 µM) was 4.49% and the viability, T/C (second compound 0.003 µM, first compound 0.1 µM) was 3.31%. It also gave a viability, T/C (second compound 0.00949 µM, first compound 0.000316 µM) of 5.79%, a viability, T/C (second compound 0.00949 µM, first compound 0.001 µM) of 5.54% and a viability, T/C (second compound 0.00949 µM, first compound 0.00316 µM) of 4.34%. For the same molecule, the viability, T/C (second compound 0.00949 µM, first compound 0.01 µM) was 5.27%, the viability, T/C (second compound 0.00949 µM, first compound 0.0316 µM) was 2.11% and the viability, T/C (second compound 0.00949 µM, first compound 0.1 µM) was 1.59%. For the same molecule, the viability, T/C (second compound 0.03 µM, first compound 0.000316 µM) was 3.45%, the viability, T/C (second compound 0.03 µM, first compound 0.001 µM) was 3.53% and the viability, T/C (second compound 0.03 µM, first compound 0.00316 µM) was 2.88%. For the same molecule, the viability, T/C (second compound 0.03 µM, first compound 0.01 µM) was 2%, the viability, T/C (second compound 0.03 µM, first compound 0.0316 µM) was 1.3% and the viability, T/C (second compound 0.03 µM, first compound 0.1 µM) was 1.03%. For the same molecule, the viability, T/C (second compound 0.0949 µM, first compound 0.000316 µM) was 3.67%, the viability, T/C (second compound 0.0949 µM, first compound 0.001 µM) was 2.67% and the viability, T/C (second compound 0.0949 µM, first compound 0.00316 µM) was 2.18%. It also gave a viability, T/C (second compound 0.0949 µM, first compound 0.01 µM) of 1.68%, a viability, T/C (second compound 0.0949 µM, first compound 0.0316 µM) of 1.09% and a viability, T/C (second compound 0.0949 µM, first compound 0.1 µM) of 0.8%. For the same molecule, the viability, T/C (second compound 0.3 µM, first compound 0.000316 µM) was 2.77%, the viability, T/C (second compound 0.3 µM, first compound 0.001 µM) was 2.43% and the viability, T/C (second compound 0.3 µM, first compound 0.00316 µM) was 1.81%. For the same molecule, the viability, T/C (second compound 0.3 µM, first compound 0.01 µM) was 1.5%, the viability, T/C (second compound 0.3 µM, first compound 0.0316 µM) was 1.12% and the viability, T/C (second compound 0.3 µM, first compound 0.1 µM) was 0.62%.
With NC1c2ccccc2OC12CCN(c1cnc3c(N4CCCc5ncccc54)n[nH]c3n1)CC2 (stereo unspecified) + C#Cc1c(F)ccc2cc(O)cc(-c3ncc4c(N5CC6CCC(C5)N6)nc(OCC56CCCN5CC(F)C6)nc4c3F)c12 the IC50 (second compound 0.0316 µM) was < 31.6 nM, the IC50 (second compound 0.1 µM) was < 31.6 nM and the IC50 (second compound 0.316 µM) was < 31.6 nM. For the same molecule, the IC50 (second compound 1 µM) was < 31.6 nM, the IC50 (second compound 3.16 µM) was < 31.6 nM and the IC50 (second compound 10 µM) was < 31.6 nM. For the same molecule, the viability, T/C [1] was 26.7%, the viability, T/C [2] was 19.3% and the viability, T/C [3] was 14.6%. The viability, T/C [4] was 13.3%, the viability, T/C (second compound 0.0316 µM, first compound 3.16 µM) was 10.4% and the viability, T/C (second compound 0.0316 µM, first compound 10 µM) was 10.1%. The viability, T/C [5] was 21%, the viability, T/C [6] was 14.3% and the viability, T/C [7] was 10.1%. The viability, T/C [8] was 8.88%, the viability, T/C (second compound 0.1 µM, first compound 3.16 µM) was 7.88% and the viability, T/C (second compound 0.1 µM, first compound 10 µM) was 6.09%. It also gave a viability, T/C [9] of 13.9%, a viability, T/C [10] of 9.75% and a viability, T/C [11] of 8.65%. The viability, T/C [12] was 4.96%, the viability, T/C (second compound 0.316 µM, first compound 3.16 µM) was 3.75% and the viability, T/C (second compound 0.316 µM, first compound 10 µM) was 2.92%. The viability, T/C [13] was 9.24%, the viability, T/C [14] was 6.71% and the viability, T/C [15] was 4%. The viability, T/C [16] was 3.17%, the viability, T/C (second compound 1 µM, first compound 3.16 µM) was 2.53% and the viability, T/C (second compound 1 µM, first compound 10 µM) was 2.43%. For the same molecule, the viability, T/C (second compound 3.16 µM, first compound 0.0316 µM) was 6.2%, the viability, T/C (second compound 3.16 µM, first compound 0.1 µM) was 3.13% and the viability, T/C (second compound 3.16 µM, first compound 0.316 µM) was 2.43%. The viability, T/C (second compound 3.16 µM, first compound 1 µM) was 1.79%, the viability, T/C (second compound 3.16 µM, first compound 3.16 µM) was 2.13% and the viability, T/C (second compound 3.16 µM, first compound 10 µM) was 1.85%. The viability, T/C (second compound 10 µM, first compound 0.0316 µM) was 3.6%, the viability, T/C (second compound 10 µM, first compound 0.1 µM) was 2.14% and the viability, T/C (second compound 10 µM, first compound 0.316 µM) was 1.74%. The viability, T/C (second compound 10 µM, first compound 1 µM) was 1.65%, the viability, T/C (second compound 10 µM, first compound 3.16 µM) was 1.73% and the viability, T/C (second compound 10 µM, first compound 10 µM) was 1.28%.
For Nc1ccn(C2OC(CO)C(O)C2(F)F)c(=O)n1 (stereo unspecified) + C=CC(=O)N1CCN(c2nc(OCC3CCCN3C)nc3c(F)c(-c4nc(N)cc(C)c4C(F)(F)F)c(Cl)cc23)C(C)C1, the IC50 (second compound 0.00316 µM) was < 3.16 nM, the IC50 (second compound 0.01 µM) was < 3.16 nM and the IC50 (second compound 0.0316 µM) was < 3.16 nM. The IC50 (second compound 0.1 µM) was < 3.16 nM, the IC50 (second compound 0.316 µM) was < 3.16 nM and the IC50 (second compound 1 µM) was < 3.16 nM. The viability, T/C (second compound 0.00316 µM, first compound 0.00316 µM) was 18.4%, the viability, T/C (second compound 0.00316 µM, first compound 0.01 µM) was 16.4% and the viability, T/C (second compound 0.00316 µM, first compound 0.0316 µM) was 14.8%. It also gave a viability, T/C (second compound 0.00316 µM, first compound 0.1 µM) of 16.6%, a viability, T/C (second compound 0.00316 µM, first compound 0.316 µM) of 15.9% and a viability, T/C (second compound 0.00316 µM, first compound 1 µM) of 15.8%. It also gave a viability, T/C (second compound 0.01 µM, first compound 0.00316 µM) of 16.5%, a viability, T/C (second compound 0.01 µM, first compound 0.01 µM) of 13.8% and a viability, T/C (second compound 0.01 µM, first compound 0.0316 µM) of 13.9%. The viability, T/C (second compound 0.01 µM, first compound 0.1 µM) was 14.3%, the viability, T/C (second compound 0.01 µM, first compound 0.316 µM) was 14.3% and the viability, T/C (second compound 0.01 µM, first compound 1 µM) was 14.9%. For the same molecule, the viability, T/C (second compound 0.0316 µM, first compound 0.00316 µM) was 15%, the viability, T/C (second compound 0.0316 µM, first compound 0.01 µM) was 14.2% and the viability, T/C [1] was 12.5%. For the same molecule, the viability, T/C [2] was 14.5%, the viability, T/C [3] was 15.3% and the viability, T/C [4] was 12.8%. For the same molecule, the viability, T/C (second compound 0.1 µM, first compound 0.00316 µM) was 14.2%, the viability, T/C (second compound 0.1 µM, first compound 0.01 µM) was 13.2% and the viability, T/C [5] was 14.2%. For the same molecule, the viability, T/C [6] was 11.5%, the viability, T/C [7] was 12.9% and the viability, T/C [8] was 14%. It also gave a viability, T/C (second compound 0.316 µM, first compound 0.00316 µM) of 13.4%, a viability, T/C (second compound 0.316 µM, first compound 0.01 µM) of 13.8% and a viability, T/C [9] of 11.6%. It also gave a viability, T/C [10] of 12.6%, a viability, T/C [11] of 14.7% and a viability, T/C [12] of 11.6%. The viability, T/C (second compound 1 µM, first compound 0.00316 µM) was 14.1%, the viability, T/C (second compound 1 µM, first compound 0.01 µM) was 16.4% and the viability, T/C [13] was 14.7%. For the same molecule, the viability, T/C [14] was 13.7%, the viability, T/C [15] was 14.2% and the viability, T/C [16] was 14.3%.
